Measurements published in patent publication US20240366539A1, “METHODS FOR TREATING AUTISM SPECTRUM DISORDERS” (INSTITUT NATIONAL DE LA SANTÉ ET DE LA RECHERCHE MÉDICALE, priority 2021, published 2024).

Key:
Oprm1^−/− mice [1] = assay: Y-maze exploration; type: in vivo, mouse
Method: (§1) Mice were treated with vehicle (NaCl 0.9%; ip, 10 or 20 ml/kg), NaBr (Sigma-Aldrich, Saint-Quentin Fallavier, France) administered either chronically (once a day, 10, 30, 70, 125, 250 and 500 mg/kg; i.p. or per os, in a volume of 20 ml/kg—except for combination with VU0155041: […]) or acutely (250 mg/kg, 20 ml/kg), KBr (Sigma-Aldrich, Saint-Quentin Fallavier, France; 145 mg/kg; i.p., 20 ml/kg), bumetanide (R&D systems, Minneapolis, USA, 0.5 and 2 mg/kg; i.p., 20 ml/kg) or VU0155041 (Cayman Chemicals, Ann Arbor, USA, once a day, i.p., 1 mg/kg, 10 ml/kg). […] When treatment was given chronically, behavioral testing started 8 days after beginning of daily administration. Treatment was maintained for 8 to 18 consecutive days (see timelines in FIGS. 1 and 4), allowing thorough behavioral phenotyping. On testing days, or when treatment was given acutely, drugs (or vehicle) were administered 30 min before behavioral assays.
Y-maze exploration. Spontaneous alternation behavior was used to assess perseverative behavior (65-67). Each Y-maze consisted of three connected Plexiglas arms (15×15×17 cm) covered with distinct wall patterns (15 lx). Floors were covered with lightly sprayed fresh sawdust to limit anxiety. Each mouse was placed at the center of a maze and allowed to freely explore this environment for 5 min. The pattern of entries into each arm was quoted on video-recordings. Spontaneous alternations (SPA), i.e. successive entries into each arm forming overlapping triplet sets, alternate arm returns (AAR) and same arm returns (SAR) were scored, and the percentage of SPA, AAR and SAR was calculated as following: total/(total arm entries−2)*100.

Oprm1^−/− mice [2] = assay: Three-chamber social preference test; type: in vivo, mouse
Method: as §1
Three-chamber social preference test. The test apparatus consisted of a transparent acrylic box (exterior walls blinded with black plastic film); partitions divided the box into three equal chambers (40×20×22.5 cm). Two sliding doors (8×5 cm) allowed transitions between chambers. Cylindrical wire cages (18×9 cm, 0.5 cm diameter-rods spaced 1 cm apart) were used to contain the mouse interactor and object (soft-toy mouse). The test was performed in low-light conditions (15 lx) to minor anxiety. Stimulus wild-type mice were habituated to confinement in wire cages for 2 days before the test (20 min/day). On testing day, the experimental animal was introduced to the middle chamber and allowed to explore the whole apparatus for a 10-min habituation phase (wire cages empty) after the sliding doors were raised. The experimental mouse was then confined back in the middle-chamber while the experimenter introduced an unfamiliar wild type age and sex-matched animal into a wire cage in one of the side-chambers and a soft toy mouse (8×10 cm) in the second wire cage as a control for novelty. Then the experimental mouse was allowed to explore the apparatus for a 10-min interaction phase. The time spent in each chamber, the time spent in nose contact with each wire cage (empty: habituation; containing a mouse or a toy: interaction), as well as the number of these nose contacts were scored a posteriori on video recordings using an ethological keyboard (Labwatcher®, View Point, Lyon, France) by trained experimenters. […] The relative position of stimulus mice (versus toy) was counterbalanced between groups.

Oprm1^−/− mice [3] = assay: Direct social interaction test; type: in vivo, mouse; conditions: for social interaction in wild-type controls: Oprm1+/+ mice
Method: as §1
When assessing effects of chronic administration, experiments were performed successively (timelines in FIGS. 1 and 4) (51, 60). Testing order was chosen to minimize the incidence of anxiety on later assays. Direct social interaction and novelty suppressed feeding were performed in 4 equal square arenas (open fields, 50×50 cm) separated by 35 cm-high opaque grey Plexiglas walls over a white Plexiglas platform (View Point, Lyon, France). Stimulus mice used for the three-chamber test were 8-14-week-old grouped-housed male or female wild-type mice, socially naive to the experimental animals.
Direct social interaction test. On testing day, a pair of unfamiliar mice (not cage mates, age-, sex- and treatment-matched) was introduced in each arena for 10 min (15 lx). Each arena received a black plastic floor (transparent to infrared). […] The mean duration of nose and paw contacts was calculated from previous data (61-63).

Oprm1^−/− mice [4] = assay: Tail-immersion test; type: in vivo, mouse; conditions: 50° C., NaBr 70 mg/kg, VU0155041 1 mg/kg, alone or combined, chronic
Method: as §1
Tail-immersion test. Nociceptive thresholds were assessed by immersing the tail of the mice (5 cm from the tip) successively into water baths at 48° C., 50° C. and 52° C. The latency to withdraw the tail was measured at each temperature, with a cutoff of 10 s.

rodent models of ASD = conditions: preclinical studies; cited from earlier work
[5] = dose of KBr equivalent to 250 mg/kg NaBr; pilot experiments
Excerpt: (§2) Also, we assessed the behavioral effects of chronic administration of another bromide salt, KBr.

Oprm1^−/− mice [6] = assay: Behavioral tests of social, repetitive and anxious behavior (oral NaBr, KBr; data not shown); conditions: mouse, in vivo
Method: as §1, §2

Oprm1^−/− mice [7] = assay: Motor stereotypies; type: in vivo, mouse
Method: as §1
Motor stereotypies. To detect motor stereotypies in mutant versus wild-type animals, mice were individually placed in clear standard home cages (21×11×17 cm) filled with 3-cm deep fresh sawdust for 10 min (64). Light intensity was set at 30 lux. Trained experimenters scored numbers of head shakes, as well as rearing, burying, grooming, circling episodes and total time spent burying by direct observation.

patients = conditions: cited from earlier work
Oprm1^−/− mice [8] = assay: Marble-burying; type: in vivo, mouse; conditions: Oprm1−/− mice; chronic NaBr 10-500 mg/kg or bumetanide 0.5 and 2 mg/kg
Method: as §1
Marble-burying. Marble burying was used as a measure of perseverative behavior (68). Mice were introduced individually in transparent cages (21×11×17 cm) containing 20 glass marbles (diameter: 1.5 cm) evenly spaced on 4-cm deep fresh sawdust. To prevent escapes, each cage was covered with a filtering lid. Light intensity in the room was set at 40 lux. The animals were removed from the cages after 15 min, and the number of marbles buried more than half in sawdust was quoted.

Oprm1^−/− mice [9] = assay: Novelty-suppressed feeding; type: in vivo, mouse; conditions: chronic NaBr (since the lowest dose tested) or bumetanide
Method: as §1
Novelty-suppressed feeding. Novelty-suppressed feeding (NSF) was measured in 24-hr food-deprived mice, isolated in a standard housing cage for 30 min before individual testing. Three pellets of ordinary lab chow were placed on a white tissue in the center of each arena, lit at 60 lx. Each mouse was placed in a corner of an arena and allowed to explore for a maximum of 15 min. Latency to feed was measured as the time necessary to bite a food pellet. Immediately after an eating event, the mouse was transferred back to home cage (free from cage-mates) and allowed to feed on lab chow for 5 min. Food consumption in the home cage was measured.

[10] = Oprm1−/− mice, NaBr 70 mg/kg, VU0155041 1 mg/kg, alone or combined, once daily, chronic
[11] = chronic NaBr 10-500 mg/kg or bumetanide 0.5 and 2 mg/kg
[12] = Oprm1−/− mice, chronic NaBr 10-500 mg/kg or bumetanide 0.5 and 2 mg/kg
[13] = chronic NaBr (since lowest dose, 10 mg/kg) or bumetanide 0.5 and 2 mg/kg
[14] = Oprm1−/− mice, chronic once daily, NaBr 10-500 mg/kg (effect from 125 mg/kg) or bumetanide 0.5 and 2 mg/kg, D9
[15] = Oprm1−/− mice, one week after cessation of chronic treatment (NaBr over 70 mg/kg, highest doses; bumetanide depending on the dose)

O=C(Nc1cc(Cl)cc(Cl)c1)C1CCCC[C@H]1C(=O)O (stereo partly shown) [VU0155041]
perseverative same arm returns (Oprm1^−/− mice [1]; chronic VU0155041 1 mg/kg): sufficient to suppress perseverative same arm returns
frequency of nose contacts with the mouse versus the toy (Oprm1^−/− mice [2]; NaBr 70 mg/kg or VU0155041 1 mg/kg, once daily, chronic): sufficient to restore more frequent nose contacts with the mouse versus the toy
duration of nose contacts with the mouse versus the toy (Oprm1^−/− mice [2]; NaBr 70 mg/kg, VU0155041 1 mg/kg, alone or combined, once daily, chronic): increased the duration of nose contacts with the mouse to that of the toy
duration of nose contacts (Oprm1^−/− mice [3]; [10]): partially rescued the duration of their nose contacts
grooming episodes after social contact (Oprm1^−/− mice [3]; [10]): suppressed grooming episodes after a social contact
effect in the social interaction test, pilot experiment (Oprm1^−/− mice [3]; liminal dose of VU0155041 (1 mg/kg i.p.)): no detectable effect in the social interaction test
flicking latency (nociceptive threshold) (Oprm1^−/− mice [4]): ineffective

NC[C@H](CC(=O)O)c1ccc(Cl)cc1 [arbaclofen]
autistic-like behaviors / phenotype in animal models (rodent models of ASD): improve autistic-like behaviors in animal models

[Br-].[K+] [KBr, potassium bromide]
toxicity [5]: toxic
social, repetitive and anxious behavior, compared with NaBr treatment (Oprm1^−/− mice [6]): fully replicated, if not exceeded, by KBr

CCCCNc1cc(C(=O)O)cc(S(N)(=O)=O)c1Oc1ccccc1 [bumetanide]
perseverative same arm returns (Oprm1^−/− mice [1]; [11]): globally failed to suppress those
number of head shakes (Oprm1^−/− mice [7]; [12]): suppressed circling and head shakes in mutant mice
stereotypic circling episodes (Oprm1^−/− mice [7]; [12]): suppressed circling and head shakes in mutant mice
number of rearing episodes (Oprm1^−/− mice [7]; both mouse lines (Oprm1−/− and Oprm1+/+), chronic NaBr or bumetanide): reduced the number of rearing episodes in both mouse lines
social preference ratio (Oprm1^−/− mice [2]; [11]): significant but partial recovery of social preference ratio
duration of nose contacts with the mouse versus the toy (Oprm1^−/− mice [2]; [13]): dose-dependently increased the duration of nose contacts with the mouse, but failed to reduce the duration of nose contacts with the toy
number of nose contacts with the mouse versus the toy (Oprm1^−/− mice [2]; [13]): at the lowest dose restored a preference for making more frequent nose contacts with the mouse over the toy
autistic behavior in small cohorts of patients (patients): relieve autistic behavior in small cohorts of patients
clinical benefit in a larger clinical trial (patients): failed to be confirmed in a larger clinical trial, except for a reduction of repetitive behavior
social interaction in wild-type controls (Oprm1^−/− mice [3]; chronic once daily, NaBr 10-500 mg/kg or bumetanide 0.5 and 2 mg/kg): showed deleterious effects on social interaction parameters in WT controls
social interaction in wild-type controls (Oprm1^−/− mice [3]; chronic once daily, NaBr 10-500 mg/kg or bumetanide 0.5 and 2 mg/kg, listed as Bumetanide): at the highest dose, it impaired social interaction in wild-type controls
social interaction deficit (Oprm1^−/− mice [3]; Oprm1−/− mice, chronic once daily i.p., NaBr 10-500 mg/kg or bumetanide 0.5 and 2 mg/kg, D9): had only partial effects
number of nose contacts (Oprm1^−/− mice [3]; Oprm1−/− mice, chronic once daily, NaBr 10-500 mg/kg (effect from 125 mg/kg) or bumetanide 0.5 and 2 mg/kg (effect at low dose), D9): increased the number of nose contacts
mean duration of nose contacts (Oprm1^−/− mice [3]; [14]): failed to increase significantly the duration of nose contacts
mean duration of paw contacts (Oprm1^−/− mice [3]; [14]): failed to increase significantly
number of paw contacts (Oprm1^−/− mice [3]; [14]): failed to increase significantly
grooming after social contact (Oprm1^−/− mice [3]; Oprm1−/− mice, chronic once daily, NaBr 10-500 mg/kg or bumetanide 0.5 and 2 mg/kg, D9): suppressed grooming episodes, notably those occurring after social contact, since the lowest dose tested
duration of nose contacts (Oprm1^−/− mice [3]; [15]): beneficial effects of bumetanide were still detectable
grooming after social contact (Oprm1^−/− mice [3]; [15]): still detectable
number of following episodes (Oprm1^−/− mice [3]; chronic once daily, NaBr 10-500 mg/kg (both mouse lines) or bumetanide (at low dose), D9): increased
excessive marble burying (Oprm1^−/− mice [8]): failed to suppress excessive marble burying in Oprm1^−/− mice
autistic-like behaviors / phenotype in animal models (rodent models of ASD): improve autistic-like phenotype in rodent models of ASD
latency to eat (Oprm1^−/− mice [9]; Oprm1−/− mice): had no detectable effect on either latency to eat
food intake (Oprm1^−/− mice [9]; both mouse lines): had no detectable effect
